# Reference: a melting point compilation (Tetko et al.; mined from patent text by program, amines drawn as free bases though some values may be those of a salt)
row,SMILES,melting point [°C]
1,O=C1c2ccccc2C(=O)c2c(NC(=O)[C@@H]3C[C@H]3c3ccccc3)ccc(NC(=O)[C@@H]3C[C@H]3c3ccccc3)c21 (relative stereo),272 to 274
2,O=c1c2c(N3CCNCC3)cc(Cl)cc2n(Cc2ccccc2)c(=O)n1Cc1ccccc1F,98 to 109
3,Cc1cc(O)c2c(c1)CCC2,82 to 83
4,CN(C)C(=O)c1cc(N2CCN([C@H]3CC[C@@H](c4cn(C)c5ccc(C#N)cc54)CC3)CC2)c2ncccc2c1,163 to 165
5,CCN(c1cc(Cl)ccc1C(=O)c1cnoc1C1CC1)S(C)(=O)=O,114 to 116
6,CCCn1nc(-c2ccc(OC)cc2)cc(C(=O)OC)c1=O,105 to 106
7,CCOC(CSc1ccc2c(c1)CCN2C(C)=O)OCC,< 52
8,CCOC(=O)c1cc2c(C)c(-c3cccc(Cl)c3)c(=O)oc2nc1C(=O)OCC,170 to 172
9,c1cn2cnnc2c2cc3c(cc12)OCO3,267 to 269
10,CC(=O)N1CCc2cc(S(=O)(=O)n3c(CCC(=O)O)cc4cc(C(F)(F)F)ccc43)ccc21,205 to 207
11,Cc1nc(N2CCOCC2)nc(C)c1-c1cccc2c1OC[C@H]2Nc1ccc2c(c1)OC[C@H]2CC(=O)O,168
12,C[C@@H](n1cnc2c(cnn2-c2ccc(Cl)cc2)c1=O)[C@](O)(Cn1cncn1)c1ccc(F)cc1F,237 to 238
13,CC(C)(C)CCC(=S)SC(C)(C)C,98 to 99
14,O=c1oc(-c2ccc(OCc3ccc(Cl)c(Cl)c3)cc2)cc(O)c1SCCc1ccccc1,168 to 169
15,CCN(c1nc2ccccc2c(=O)o1)c1ccccc1I,129 to 130
16,Cc1cc(OCCc2nc(-c3ccccc3)oc2C)cc(C)c1CN(O)C(N)=O,170 to 171
17,Cc1cc(C(=O)Nc2ccccc2C)n(C)n1,158 to 160
18,COc1ccc(C(Cn2cc[nH]c2=O)=NO)cc1OC1CCCC1,191
19,CCCCCCCCCc1ccc(C(=O)O)c(O)c1,94 to 97
20,COc1cccc(C(O)C(C)(C)NC(=O)Cc2ccc(OC)c(OC)c2)c1 (stereo not given),137 to 138
21,O=CNCCNC1=NS(=O)(=O)c2cc(Cl)ccc2N1,245 to 247
22,CCOC(=O)C(C)(C)Sc1ccc(OCCn2c(C)nc3ccccc3c2=O)cc1,188 to 190
23,COc1cc2nc(S(=O)Cc3cc(N(C)C)c(Cl)cn3)[nH]c2cc1OC (stereo not given),164 to 165
24,COc1cc(N)c(C)c(OC)c1OC,49 to 51

row,SMILES,melting point [°C]
1,CC(C)(C)NCC(O)COc1ccccc1C1=NNC(=O)CC1 (stereo not given),138 to 141
2,O=C(Nc1cccc(O)c1)NC1N=C(c2ccccc2F)c2ccccc2N(CC(=O)N2CC3CCC(CC3)C2)C1=O (racemic),184 to 185
3,O=C1c2c(Cl)cccc2-n2cncc2[C@@H]2CCN12,207 to 208
4,CC(C)C(Oc1ccccc1)C(=O)OC1CC(O)C=C2C=CC(C)C(CCC3CC(O)CC(=O)O3)C21 (mixture of isomers),143 to 145
5,CC(=O)NC(=Cc1cccs1)C1=NC(=Cc2ccc([N+](=O)[O-])cc2)C(=O)O1,196 to 197
6,NC(=O)c1ccnc(NC(=O)N2CCC3(CCc4cc(F)ccc4O3)CC2)c1,265 to 267
7,CSc1ccc(-c2nn(Cc3ccc(F)cc3)c(=O)cc2-c2ccc(F)cc2)cc1,156
8,Cc1sc2c(Br)c3ccccc3c(-c3cc(Br)c(O)c([N+](=O)[O-])c3)c2c1C,129 to 130
9,Cc1ccc(Sc2c(O)c3ccc(Cl)cc3[nH]c2=O)cc1,245 to 246
10,CC1(C)NC(=O)N(c2cc(C#N)c(C#N)c(C(F)(F)F)c2)C1=O,159 to 160
11,COC(=O)Cc1ccc(OCCNC(=O)C2Cc3ccccc3N2S(=O)(=O)c2ccc(-c3cc(C(F)(F)F)ccc3F)cc2)cc1 (stereo not given),52 to 55
12,O=c1[nH]ccc2c1C(c1cccc(Cl)c1)N=C(c1ccccc1)N2 (stereo not given),172 to 173
13,O=C(CC(=O)c1ccccc1Cl)Nc1ccccc1,142
14,O[C@H]1CCCN[C@H]1c1ccccc1 (relative stereo),93 to 95
15,Nc1ccc(C(=O)O)c(C(=O)O)c1,188
16,CCc1nc(/C=C/c2cn(-c3ccccc3)nc2OCc2ccc(OCc3nc(-c4cccc(NS(C)(=O)=O)c4)oc3C)c(OC)c2)cs1,113 to 115
17,CC(C(=O)O)n1ccc2c(OCc3ccccc3)cccc21 (stereo not given),143 to 146
18,COc1c(C)c(C(=O)c2ccc([N+](=O)[O-])cc2)n2ccccc12,151
19,COc1cccc2c1CC(C#N)CC2 (stereo not given),66 to 68
20,Cc1cn(C)c2c1N(C(=O)CCl)c1ccccc1NC2=O,267 to 269
21,COc1nc(N2CCOCC2)c(Cl)nc1NS(=O)(=O)c1cccc(Cl)c1Cl,150 to 151
22,O=C1Cc2cccc(Oc3ccccc3O)c2O1,150 to 152
23,COc1ccc2c(c1O)NC(=O)C1CCCN1C2=O (stereo not given),275 to 278
24,CCC(=O)Nc1c(C(=O)c2cccc(Cl)c2)[nH]c2cc(Cl)ccc12,129 to 130

row,SMILES,melting point [°C]
1,C#Cc1ccc(OC)c(OC)c1,71 to 72
2,Cc1oncc1C(=O)c1ccc(C(F)(F)F)cc1[N+](=O)[O-],85 to 86
3,CC1=C(C(=O)NC(C)(C)C)C(c2ccccc2Cl)C(C(=O)O)=C(COCCn2c(C)nc3ccccc32)N1 (stereo not given),187 to 188
4,O=C(Nc1nccs1)c1nc(-c2ccc(C(F)(F)F)cc2)[nH]c1-c1ccc(F)cc1,> 250
5,FCc1cccc(C#CCCc2ccc3ccccc3n2)n1,70.2 to 74.3
6,CC(=O)NC[C@H]1CN(c2ccc(N3CCN(CCCO)CC3)c(F)c2)C(=O)O1,154 to 156
7,CSC1NC(=O)N(C)C(=O)N1N (stereo not given),174 to 175
8,CC1OOC2CC1CC(=O)C2C (stereo not given),160
9,N#Cc1cccc(Oc2ccccc2)c1C#N,110 to 112
10,C[C@]12C[C@H](c3ccc(OCCCCCS(=O)(=O)CCCc4c(F)c(F)c(F)c(F)c4F)cc3)[C@@H]3c4ccc(O)cc4CC[C@H]3[C@@H]1CC[C@@H]2O,130
11,OCCn1cc(-c2ccc3nnn(Cc4c(F)ccc(F)c4Cl)c3n2)cn1,143 to 145
12,CN1CCC(C2c3ccccc3C=Cc3ccccc32)CC1,127
13,N#Cc1cc(C=O)ccc1-n1cnc([N+](=O)[O-])n1,170 to 172
14,COc1ccc(-c2cc(SC)sc2-c2ccc(OC)cc2)cc1,106 to 108
15,COc1c(C)c2c(c(NC(=O)N(C)C)c1C/C=C(\C)CCC(=O)O)C(=O)OC2,170 to 190
16,CC(C)(C)CC(NC(=O)c1ccc(Cl)cc1)NC(=NC#N)Nc1cccnc1 (stereo not given),181 to 183
17,Cc1ccc2c(c1)Cn1nnnc1C(=S)N2,293 to 296
18,CCc1ncnc2ccc(I)cc12,110 to 113
19,COc1cc2ncc(C#N)c(Nc3ccc4cn[nH]c4c3)c2cc1OC,180 to 183
20,CC1=C(C(=O)OC(C)(C)C)C(c2ccc(F)c(Br)c2)C(C(=O)OC(C)(C)C)=C(C)N1,171 to 172
21,CN1CNC(=N[N+](=O)[O-])N(Cc2ccc(Cl)nc2)C1,150 to 154
22,CSc1nccc(C)c1NC(=O)CSc1nc2ccccc2o1,146 to 148
